The source made the active and inactive calls. How the calls were made is not given here.
System: CCRIS mutagenicity, Ames/micronucleus/aberration tests
Experiment: CCRIS mutagenicity studies
[1] = Test System: AMES SALMONELLA TYPHIMURIUM, Strain/Indicator: TA97, Metabolic Activation: NONE, Method: PREINCUBATION
[2] = Test System: AMES SALMONELLA TYPHIMURIUM, Strain/Indicator: TA98, Metabolic Activation: NONE, Method: PREINCUBATION
[3] = Test System: AMES SALMONELLA TYPHIMURIUM, Strain/Indicator: TA100, Metabolic Activation: NONE, Method: PREINCUBATION
[4] = Test System: AMES SALMONELLA TYPHIMURIUM, Strain/Indicator: TA1535, Metabolic Activation: NONE, Method: PREINCUBATION

## O=C1c2c(O)cccc2Cc2cccc(O)c21
Test System: AMES SALMONELLA TYPHIMURIUM, Strain/Indicator: TA97, Metabolic Activation: HAMSTER, LIVER, S-9, AROCLOR 1254 (10%), Method: PREINCUBATION
  mutagenic call: inactive; negative
Test System: AMES SALMONELLA TYPHIMURIUM, Strain/Indicator: TA97, Metabolic Activation: HAMSTER, LIVER, S-9, AROCLOR 1254 (30%), Method: PREINCUBATION
  mutagenic call: inactive; negative
[1]
  mutagenic call: inactive; negative
Test System: AMES SALMONELLA TYPHIMURIUM, Strain/Indicator: TA97, Metabolic Activation: RAT, LIVER, S-9, AROCLOR 1254 (10%), Method: PREINCUBATION
  mutagenic call: inactive; negative
Test System: AMES SALMONELLA TYPHIMURIUM, Strain/Indicator: TA97, Metabolic Activation: RAT, LIVER, S-9, AROCLOR 1254 (30%), Method: PREINCUBATION
  mutagenic call: inactive; negative
Test System: AMES SALMONELLA TYPHIMURIUM, Strain/Indicator: TA98, Metabolic Activation: HAMSTER, LIVER, S-9, AROCLOR 1254 (10%), Method: PREINCUBATION
  mutagenic call: inactive; negative
Test System: AMES SALMONELLA TYPHIMURIUM, Strain/Indicator: TA98, Metabolic Activation: HAMSTER, LIVER, S-9, AROCLOR 1254 (30%), Method: PREINCUBATION
  mutagenic call: inactive; negative
[2]
  mutagenic call: inactive; negative
Test System: AMES SALMONELLA TYPHIMURIUM, Strain/Indicator: TA98, Metabolic Activation: RAT, LIVER, S-9, AROCLOR 1254 (10%), Method: PREINCUBATION
  mutagenic call: inactive; negative
Test System: AMES SALMONELLA TYPHIMURIUM, Strain/Indicator: TA98, Metabolic Activation: RAT, LIVER, S-9, AROCLOR 1254 (30%), Method: PREINCUBATION
  mutagenic call: inactive; negative
Test System: AMES SALMONELLA TYPHIMURIUM, Strain/Indicator: TA100, Metabolic Activation: FISH, LIVER, S-9, 3-METHYLCHOLANTHRENE, Method: STANDARD PLATE
  mutagenic call: inactive; negative
Test System: AMES SALMONELLA TYPHIMURIUM, Strain/Indicator: TA100, Metabolic Activation: HAMSTER, LIVER, S-9, AROCLOR 1254 (10%), Method: PREINCUBATION
  mutagenic call: inactive; negative
Test System: AMES SALMONELLA TYPHIMURIUM, Strain/Indicator: TA100, Metabolic Activation: HAMSTER, LIVER, S-9, AROCLOR 1254 (30%), Method: PREINCUBATION
  mutagenic call: inactive; negative
[3]
  mutagenic call: inactive; negative
Test System: AMES SALMONELLA TYPHIMURIUM, Strain/Indicator: TA100, Metabolic Activation: NONE, Method: STANDARD PLATE
  mutagenic call: inactive; negative
Test System: AMES SALMONELLA TYPHIMURIUM, Strain/Indicator: TA100, Metabolic Activation: RAT, LIVER, S-9, AROCLOR 1254 (10%), Method: PREINCUBATION
  mutagenic call: inactive; negative
Test System: AMES SALMONELLA TYPHIMURIUM, Strain/Indicator: TA100, Metabolic Activation: RAT, LIVER, S-9, AROCLOR 1254 (30%), Method: PREINCUBATION
  mutagenic call: inactive; negative
Test System: AMES SALMONELLA TYPHIMURIUM, Strain/Indicator: TA1535, Metabolic Activation: HAMSTER, LIVER, S-9, AROCLOR 1254 (10%), Method: PREINCUBATION
  mutagenic call: inactive; negative
Test System: AMES SALMONELLA TYPHIMURIUM, Strain/Indicator: TA1535, Metabolic Activation: HAMSTER, LIVER, S-9, AROCLOR 1254 (30%), Method: PREINCUBATION
  mutagenic call: inactive; negative
[4]
  mutagenic call: inactive; negative
Test System: AMES SALMONELLA TYPHIMURIUM, Strain/Indicator: TA1535, Metabolic Activation: RAT, LIVER, S-9, AROCLOR 1254 (10%), Method: PREINCUBATION
  mutagenic call: inactive; negative
Test System: AMES SALMONELLA TYPHIMURIUM, Strain/Indicator: TA1535, Metabolic Activation: RAT, LIVER, S-9, AROCLOR 1254 (30%), Method: PREINCUBATION
  mutagenic call: inactive; negative
Test System: AMES SALMONELLA TYPHIMURIUM, Strain/Indicator: TA1537, Metabolic Activation: NONE, Method: STANDARD PLATE
  mutagenic call: inactive; negative
Test System: AMES SALMONELLA TYPHIMURIUM, Strain/Indicator: TA1537, Metabolic Activation: RAT, LIVER, S-9, PHENOBARBITAL AND BETA-NAPHTHOFLAVONE, Method: STANDARD PLATE
  mutagenic call: active; positive
Test System: E. COLI, Strain/Indicator: WP2, Metabolic Activation: NONE, Method: STANDARD PLATE
  mutagenic call: inactive; negative
Test System: E. COLI, Strain/Indicator: WP2, Metabolic Activation: RAT, LIVER, S-9, AROCLOR 1254, Method: STANDARD PLATE
  mutagenic call: inactive; negative
Test System: E. COLI, Strain/Indicator: WP2 UVRA, Metabolic Activation: NONE, Method: STANDARD PLATE
  mutagenic call: inactive; negative
Test System: E. COLI, Strain/Indicator: WP2 UVRA, Metabolic Activation: RAT, LIVER, S-9, AROCLOR 1254, Method: STANDARD PLATE
  mutagenic call: inactive; negative

## O=S(O)S(=O)O
[1]
  mutagenic call: inactive; negative
Test System: AMES SALMONELLA TYPHIMURIUM, Strain/Indicator: TA97, Metabolic Activation: RAT, LIVER, S-9, AROCLOR 1254, Method: PREINCUBATION
  mutagenic call: inactive; negative
[2]
  mutagenic call: inactive; negative
Test System: AMES SALMONELLA TYPHIMURIUM, Strain/Indicator: TA98, Metabolic Activation: RAT LIVER S-9, PHENOBARBITAL AND BETA-NAPHTHOFLAVONE, Method: PREINCUBATION
  mutagenic call: inactive; negative
Test System: AMES SALMONELLA TYPHIMURIUM, Strain/Indicator: TA98, Metabolic Activation: RAT, LIVER, S-9, KC 500, Method: PREINCUBATION
  mutagenic call: inactive; negative
[3]
  mutagenic call: inactive; negative
Test System: AMES SALMONELLA TYPHIMURIUM, Strain/Indicator: TA100, Metabolic Activation: RAT LIVER S-9, PHENOBARBITAL AND BETA-NAPHTHOFLAVONE, Method: PREINCUBATION
  mutagenic call: inactive; negative
Test System: AMES SALMONELLA TYPHIMURIUM, Strain/Indicator: TA100, Metabolic Activation: RAT, LIVER, S-9, KC 500, Method: PREINCUBATION
  mutagenic call: inactive; negative
Test System: AMES SALMONELLA TYPHIMURIUM, Strain/Indicator: TA102, Metabolic Activation: NONE, Method: PREINCUBATION
  mutagenic call: inactive; negative
Test System: AMES SALMONELLA TYPHIMURIUM, Strain/Indicator: TA102, Metabolic Activation: RAT, LIVER, S-9, AROCLOR 1254, Method: PREINCUBATION
  mutagenic call: inactive; negative
[4]
  mutagenic call: inactive; negative
Test System: AMES SALMONELLA TYPHIMURIUM, Strain/Indicator: TA1535, Metabolic Activation: RAT LIVER S-9, PHENOBARBITAL AND BETA-NAPHTHOFLAVONE, Method: PREINCUBATION
  mutagenic call: inactive; negative
Test System: AMES SALMONELLA TYPHIMURIUM, Strain/Indicator: TA1535, Metabolic Activation: RAT, LIVER, S-9, KC 500, Method: PREINCUBATION
  mutagenic call: inactive; negative
Test System: AMES SALMONELLA TYPHIMURIUM, Strain/Indicator: TA1537, Metabolic Activation: NONE, Method: PREINCUBATION
  mutagenic call: inactive; negative
Test System: AMES SALMONELLA TYPHIMURIUM, Strain/Indicator: TA1537, Metabolic Activation: RAT LIVER S-9, PHENOBARBITAL AND BETA-NAPHTHOFLAVONE, Method: PREINCUBATION
  mutagenic call: inactive; negative
Test System: AMES SALMONELLA TYPHIMURIUM, Strain/Indicator: TA1537, Metabolic Activation: RAT, LIVER, S-9, KC 500, Method: PREINCUBATION
  mutagenic call: inactive; negative
Test System: AMES SALMONELLA TYPHIMURIUM, Strain/Indicator: TA1538, Metabolic Activation: NONE, Method: PREINCUBATION
  mutagenic call: inactive; negative
Test System: AMES SALMONELLA TYPHIMURIUM, Strain/Indicator: TA1538, Metabolic Activation: RAT LIVER S-9, PHENOBARBITAL AND BETA-NAPHTHOFLAVONE, Method: PREINCUBATION
  mutagenic call: inactive; negative
Test System: AMES SALMONELLA TYPHIMURIUM, Strain/Indicator: TA1538, Metabolic Activation: RAT, LIVER, S-9, KC 500, Method: PREINCUBATION
  mutagenic call: inactive; negative
Test System: E. COLI, Strain/Indicator: WP2 UVRA, Metabolic Activation: NONE, Method: PREINCUBATION
  mutagenic call: inactive; negative
Test System: E. COLI, Strain/Indicator: WP2UVRA, Metabolic Activation: NONE, Method: PREINCUBATION
  mutagenic call: inactive; negative
Test System: E. COLI, Strain/Indicator: WP2UVRA, Metabolic Activation: RAT LIVER S-9, PHENOBARBITAL AND BETA-NAPHTHOFLAVONE, Method: PREINCUBATION
  mutagenic call: inactive; negative
Test System: E. COLI, Strain/Indicator: WP2 UVRA, Metabolic Activation: RAT, LIVER, S-9, KC 500, Method: PREINCUBATION
  mutagenic call: inactive; negative

## O=C[C@H](NC(=O)N(CCCl)N=O)[C@@H](O)[C@H](O)[C@H](O)CO
Test System: CHINESE HAMSTER V-79, Strain/Indicator: V-79/6-THIOGUANINE, Metabolic Activation: NONE, Method: STANDARD PLATE
  mutagenic call: active; positive

Source: PubChem BioAssay AID1259407 (Chemical Carcinogenesis Research Information System (CCRIS), 2018)
